Assays:
[1] = system: MDA-MB-231 cells; assay: Cellular uptake of platinum compounds (AAS); assay type: cell-based; details: 50 μM platinum equivalent, 5 hrs
Protocol: Cells were incubated with 50 μM concentration of platinum compounds for 5 hours. The amount of platinum accumulated in cells was measured by AAS and expressed as ng of platinum accumulated per 10^5 cells.
Cellular uptake of platinum compounds: MDA-MB-231 cells (1×10^6) were seeded in 2 ml media per well of a 6-well plate and grown for 24 hrs. Required volume of compounds was added to achieve a final concentration of 50 μM platinum equivalent per well. Cells were incubated for 5 hrs after adding the compounds, then washed twice with PBS, harvested by trypsinization, resuspended in PBS and counted. Cells were centrifuged and pellets stored at −80° C. until further processing. The cell pellets were digested with 100 μl nitric acid at 70° C. for 4 hours. Following digestion, the samples were diluted in 2% HCl and the quantity of accumulated platinum was determined using Atomic absorption spectroscopy (AAS). The assay was validated using a linear standard curve, generated from serial dilutions of certified stock platinum standard and cellular uptake of platinum was expressed as ng of platinum per 1×10^5 cells.

[2] = system: MDA-MB-231, SKOV-3, HeLa, SW-620 and HCT-116 cell lines; assay: MTT cell viability assay, 72 h; assay type: cell-based, human; details: for inhibition of cell viability: 0-25 μM concentration range, dose-response relationship; for IC50 compared with oxaliplatin: human cancer cell lines
Protocol: FIGS. 7A-7F show MTT assay results for some exemplary compounds disclosed herein. Graphical representation of MTT assay for the activity of exemplary compounds examined on various human cancer cell lines. […] The IC50 values of compound/oxaliplatin tested in cell-lines are mentioned alongside, in corresponding colors as the cell viability curve.
Cell culture: Mammalian cells were grown in specific culture media, supplemented with 10% fetal bovine serum (FBS) and antibiotics in a humidified environment containing 5% CO2 at 37° C.
Cell viability assay: The effects of supramolecular platinum conjugates on the viability of cancer cells were measured using MTT assay. Cells in 100 μl culture-media were plated in 96-well plates (3000-5000 cells/well) and allowed to adhere overnight in a humidified environment containing 5% CO2 at 37° C. Fresh media (100 μL) containing different concentrations of compounds were added to cells and incubated for 72 hours. Following incubation, cell viability was determined using the MTT assay. The MTT assay measures cell viability through assessment of active mitochondrial dehydrogenase, which converts MTT into water-insoluble purple formazan crystals. Cell viability was plotted as dose-response curves using curve fitting.
The effects of exemplary compounds (compound 25, 26, 27, 28, 31, 48) were evaluated in vitro in comparison with oxaliplatin in breast cancer (MDA-MB-231), ovarian cancer (SKOV-3), cervical cancer (HeLa) and colorectal cancer (SW-620 and HCT-116) cell lines.

SMILES	cellular uptake of platinum [1]	inhibition of cell viability [2]	IC50 compared with oxaliplatin [2]
O=C1[O][Pt]2([NH][C@@H]3CCCC[C@H]3[NH]2)[O]C1=O [oxaliplatin]	similar		
CC(C)CCC[C@@H](C)[C@H]1CC[C@H]2[C@@H]3CC=C4C[C@@H](OCCOCC[N+]5(CC(=O)[O-])CC(=O)[O][Pt]56[NH][C@@H]5CCCC[C@H]5[NH]6)CC[C@]4(C)[C@H]3CC[C@]12C (some centres unmarked) [Compound 28]		significant inhibition of cell viability	lower than oxaliplatin
CC(C)CCC[C@@H](C)[C@H]1CC[C@H]2[C@@H]3CC=C4C[C@@H](OC(=O)NCC[N+]5(CC(=O)[O-])CC(=O)[O][Pt]56[NH][C@@H]5CCCC[C@H]5[NH]6)CC[C@]4(C)[C@H]3CC[C@]12C (some centres unmarked) [Compound 26]		significant inhibition of cell viability	lower than oxaliplatin
CC(C)CCC[C@@H](C)[C@H]1CCC2C3CC=C4C[C@@H](OCC[N+]5(CC(=O)[O-])CC(=O)[O][Pt]56[NH][C@@H]5CCCC[C@H]5[NH]6)CC[C@]4(C)C3CC[C@@]21C (some centres unmarked) [Compound 25]		significant inhibition of cell viability	lower than oxaliplatin
CC(C)CCC[C@@H](C)[C@H]1CC[C@H]2[C@@H]3CC=C4C[C@@H](OCCNC(=O)C[N+]5(CC(=O)[O-])CC(=O)[O][Pt]56[NH][C@@H]5CCCC[C@H]5[NH]6)CC[C@]4(C)[C@H]3CC[C@]12C (some centres unmarked) [Compound 27]		significant inhibition of cell viability	lower than oxaliplatin
CC(C)CCC[C@@H](C)[C@H]1CC[C@H]2[C@@H]3CC=C4C[C@@H](OCCCC5=CC(=O)[O][Pt]6([NH][C@@H]7CCCC[C@H]7[NH]6)[O]5)CC[C@]4(C)[C@H]3CC[C@]12C [Compound 31]		significant inhibition of cell viability	lower than oxaliplatin

— patent US10081648B2, “Lipid-based platinum compounds and nanoparticles” (AKAMARA THERAPEUTICS, INC., priority 2013, dated 2018)
